Patent US20070082914A1, “4-(4-Methylpiperazin-1-ylmethyl)-n-[4-methyl-3-(4-pyridin-3-yl)pyrimidin-2-ylamino)phenyl]-benzamide for treating pulmonary fibrosis” (priority 2002, published 2007)
Structures can show the parent of a compound that is named as a salt.

System: Asbestos-Exposed Mice
Assay: Asbestos-exposed mice: morphometric analysis of first alveolar duct bifurcations
Assay type: in vivo
Settings: asbestos-exposed C57BL/6 mice, 30 days following exposure
Experimental: Asbestos Exposure: Eight week old C57BL/6 mice are exposed to 15 mg/m^3 of chrysotile asbestos in inhalation chambers for a period of 5 hours, for 3 consecutive days, as described previously in detail in our earlier publications (Lasky et al. Am. J. Respir. Crit. Care Med. (1998) 157:1652-7). This asbestos exposure induces fibroblast proliferation and a morphometrically characterized lesion at the alveolar duct bifurcations (Brody et al., Am Rev Respir Dis. (1981) 123:670-9). Sham-exposed (ambient air) animals are used as controls. The groups include: sham-exposed with vehicle; asbestos-exposed with vehicle; and asbestos exposed with COMPOUND I (imatinib mesylate). Five mice from each of these […] are sacrificed 30 days following exposure and used for determining the dimensions of the alveolar duct bifurcations. […]
Morphometric Analysis: H & E stained sections from exposed and control animals from the 30 day time point are masked. Bifurcation area is measured using an Olympus microscope with a video camera interfacing with a PC utilizing V150 imaging software (Fermin et al., J Anat. (1995) 186:469-81). The total area and perimeter of each of five first alveolar duct bifurcations is measured as previously described (Perdue et al., J. Histochem. Cytochem. (1994) 42:1061-70). […]

Cc1ccc(NC(=O)c2ccc(CN3CCN(C)CC3)cc2)cc1Nc1nccc(-c2cccnc2)n1 [SALT I, 4[-(4-methyl-1-piperazin-1-ylmethyl)-N-[4-methyl-3-[[4-(3-pyridinyl)-2-pyrimidinyl]amino]phenyl]benzamide methanesulfonate]
First alveolar duct area (100 mg COMPOUND I free base/kg i.p. once per day, from the day preceding exposure and for 14 days thereafter, group mean): 1875 square micrometers
reduction of the size of the lesion (fibrotic scar at first alveolar duct bifurcations) (100 mg free base/kg i.p. once per day, P=0.02): 43%
